Test results as given in patent publication US10214518B2, “Pyrazolyl substituted carbonic acid derivatives as modulators of the prostacyclin (PGI2) receptor useful for the treatment of disorders related thereto” (Arena Pharmaceuticals, Inc., priority 2008, dated 2019).

Legend:
[1] = system: human platelet-rich plasma (PRP); assay: Human platelet aggregation inhibition test (ADP-induced, PRP); assay type: cell-based; settings: inhibition of aggregation induced by 1x10^-5 M ADP in human PRP
Method: Example 3: Human Platelet Aggregation Inhibition Test
Blood collected from healthy human volunteers in aqueous trisodium citrate solution was centrifuged at 150 g for 15 min and the upper layer was recovered to obtain platelet-rich plasma (PRP). The residual blood was centrifuged at 3000 g for 10 min and the supernatant was collected as platelet-poor plasma (PPP). Platelet concentration in the PRP was determined using the Z series Beckman Coulter particle counter (Beckman, Fullerton, Calif.) and adjusted to 250,000 platelets/μL using PPP. 480 μL of PRP was pre-incubated at 37° C. and stirred at 1200 rpm with 10 μL aqueous test compound solution for 1 min prior to induction of aggregation by the addition of 10 μL of aqueous adenosine diphosphate (ADP) solution to adjust the final ADP concentration in the PRP to 1×10^−5 M. The maximal amplitude of aggregation response within 3 min was determined and measured in triplicate using the Chronolog model 490 aggregometer (Chrono-log Corp., Havertown, Pa.). Percent inhibition of aggregation was calculated from the maximum decrease in optical density of the control (addition of water in place of the test compound solution) sample and of the samples containing test compound. The test compound was added to adjust the final concentration to the range 10^−9 to 10^−4 M, and IC50 values were determined by inhibition percentage of aggregation at each concentration.

[2] = target: human prostacyclin (PGI2) receptor (Homo sapiens (Human), UniProt P43119); assay: HTRF assay for direct cAMP measurement; assay type: cell-based; settings: recombinant CHO-K1 cells stably transfected with human prostacyclin receptor; cAMP increase
From the text: Example 2: Homogeneous Time-Resolved Fluorescence (HTRF®) Assay for Direct cAMP Measurement
Compounds were screened for agonists of the human prostacyclin (PGI2) receptor using the HTRF® assay for direct cAMP measurement (Gabriel et al., ASSAY and Drug Development Technologies, 1:291-303, 2003) and recombinant CHO-K1 cells stably transfected with human prostacyclin receptor. CHO-K1 cells were obtained from ATCC® (Manassas, Va.; Catalog # CCL-61). An agonist of the prostacyclin receptor was detected in HTRF® assay for direct cAMP measurement as a compound which increased cAMP concentration. HTRF® assay also was used to determine EC50 values for prostacyclin receptor agonists.
The HTRF® assay kit was purchased from Cisbio-US, Inc. (Bedford, Mass.; Catalog #62AM4PEC). The HTRF® assay supported by the kit is a competitive immunoassay between endogenous cAMP produced by the CHO-K1 cells and tracer cAMP labeled with the dye d2. The tracer binding is visualized by a monoclonal anti-cAMP antibody labeled with Cryptate. The specific signal (i.e., fluorescence resonance energy transfer, FRET) is inversely proportional to the concentration of unlabeled cAMP in the standard or sample.
The fluorescence ratio (665 nm/620 nm) of the standards (0.17 to 712 nM cAMP) included in the assay was calculated and used to generate a cAMP standard curve according to the kit manufacturer's instructions. The fluorescence ratio of the samples (test compound or compound buffer) was calculated and used to deduce respective cAMP concentrations by reference to the cAMP standard curve.
The HTRF® assay was carried out using a two-step protocol essentially according to the kit manufacturer's instructions, in 20 μL total volume per well in 384-well plate format (ProxiPlates; PerkinElmer, Fremont, Calif.; catalog #6008280). To each of the experimental wells was transferred 3000 recombinant CHO-K1 cells in 5 μL assay buffer (phosphate buffered saline containing calcium chloride and magnesium chloride (Invitrogen, Carlsbad, Calif.; catalog #14040) supplemented with IBMX (100 μM) and rolipram (10 μM) (phosphodiesterase inhibitors; Sigma-Aldrich, St. Louis, Mo.; catalog #15879 and catalog #R6520, respectively) and 0.1% bovine serum albumin (BSA) fraction V (Sigma-Aldrich; catalog # A3059)), followed by test compound in 5 μL assay buffer or 5 μL assay buffer. The plate was then incubated at room temperature for 1 h. […] The plate was then further incubated at room temperature for 1 h, after which the assay plate was read.
The HTRF® readout was accomplished using a PHERAstar (BMG LABTECH Inc., Durham, N.C.) or EnVision™ (PerkinElmer, Fremont Calif.) microplate reader.

[3] = system: MCT-induced pulmonary arterial hypertension in rat; assay: Rat monocrotaline (MCT) model of pulmonary arterial hypertension; assay type: in vivo; settings: 30 mg/kg oral gavage twice a day for 21 days; 60 mg/kg MCT s.c.; male Wistar rats; Day 22
Method: Example 4: Rat Model of Pulmonary Arterial Hypertension
Male Wistar rats (100-150 g at start of study) (Charles River Laboratories, Wilmington, Mass.) were housed two per cage and maintained in a humidity—(40-60%) and temperature—(68-72° F.) controlled facility on a 12 hr:12 hr light/dark cycle (lights on at 6:30 am) with free access to food (Harlan Teklad, Orange Calif., Rodent Diet 8604) and water. Rats were allowed one week of habituation to the animal facility before testing.
The rat monocrotaline (MCT) model is a standard and well-accepted model of pulmonary arterial hypertension. MCT induces acute pulmonary endothelial damage associated with pulmonary vascular inflammation. […]
Rats were randomly given a single subcutaneous injection of either 60 mg/kg MCT (Sigma, St. Louis, Mo.) or 0.9% saline (sham) and assigned to receive oral administration of 20% hydroxypropyl beta-cyclodextrin (vehicle) or test compound (30 mg/kg; FIGS. 1 and 2). […] Heart chamber weights were measured on Day 22. […] The ratio of right ventricular (RV) weight to left ventricle plus septum (LV+S) weight (this ratio is indicated as “RV/(LV+S)” in FIGS. 1 and 2) was calculated as an index of the hypertrophic response to the induced pulmonary arterial hypertension and, as such, as an index of a test compound's therapeutic efficacy for pulmonary arterial hypertension.

human prostacyclin (PGI2) receptor, sequence (P43119 whole entry): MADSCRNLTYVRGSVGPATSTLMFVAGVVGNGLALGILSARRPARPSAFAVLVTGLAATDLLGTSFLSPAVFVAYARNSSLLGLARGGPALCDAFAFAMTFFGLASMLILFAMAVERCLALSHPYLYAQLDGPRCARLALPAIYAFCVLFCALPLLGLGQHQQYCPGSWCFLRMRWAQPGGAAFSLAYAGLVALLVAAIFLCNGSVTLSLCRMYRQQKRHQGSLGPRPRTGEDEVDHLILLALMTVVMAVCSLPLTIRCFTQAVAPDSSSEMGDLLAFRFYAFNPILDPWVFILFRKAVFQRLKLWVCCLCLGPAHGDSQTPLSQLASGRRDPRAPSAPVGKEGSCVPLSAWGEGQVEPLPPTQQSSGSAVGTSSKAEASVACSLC

**Q.** How did the IC50 [1] turn out when O=C(O)COC[C@H]1CC[C@@H](Cn2nc(-c3ccccc3)c(-c3ccccc3)c2SCCO)CC1 [Compound 146, 2-(((1s,4s)-4-((5-(2-Hydroxyethylthio)-3,4-diphenyl-1H-pyrazol-1-yl)methyl)cyclohexyl)methoxy)acetic Acid] was run?
**A.** The IC50 was 70 nM.

**Q.** COc1cccc(-c2c(-c3ccccc3)nn(C[C@H]3CC[C@@H](COCC(=O)O)CC3)c2SCCO)c1 [Compound 198, 2-(((1s,4s)-4-((5-(2-Hydroxyethylthio)-4-(3-methoxyphenyl)-3-phenyl-1H-pyrazol-1-yl)methyl)cyclohexyl)methoxy)acetic Acid] was tested. Which EC50 [2] did it give?
**A.** Its EC50 is 2 nM.

**Q.** For N#CCSc1c(-c2ccccc2)c(-c2ccccc2)nn1C[C@H]1CC[C@@H](COCC(=O)O)CC1 [Compound 184, 2-(((1s,4s)-4-((5-(Cyanomethylthio)-3,4-diphenyl-1H-pyrazol-1-yl)methyl)cyclohexyl)methoxy)acetic Acid], which IC50 [1] is on record?
**A.** Its IC50 is 20 nM.

**Q.** And the EC50 [2]?
**A.** Its EC50 is 11 nM.

**Q.** Which IC50 [1] does the source give for CSc1c(-c2ccc(C)s2)c(-c2ccccc2)nn1C[C@H]1CC[C@@H](COCC(=O)O)CC1 [Compound 111, 2-(((1s,4s)-4-((5-(Methylthio)-4-(5-methylthiophen-2-yl)-3-phenyl-1H-pyrazol-1-yl)methyl)cyclohexyl)methoxy)acetic Acid] here?
**A.** The IC50 was 28 nM.

**Q.** And the EC50 [2]?
**A.** Its EC50 is 16 nM.

**Q.** For CCSc1c(-c2cccc(OC)c2F)c(-c2ccccc2)nn1C[C@H]1CC[C@@H](COCC(=O)O)CC1 [Compound 90, 2-(((1s,4s)-4-((5-(Ethylthio)-4-(2-fluoro-3-methoxyphenyl)-3-phenyl-1H-pyrazol-1-yl)methyl)cyclohexyl)methoxy)acetic Acid], which EC50 [2] is on record?
**A.** The EC50 was 7 nM.

**Q.** With COc1cccc(-c2c(-c3ccccc3)nn(C[C@H]3CC[C@@H](COCC(=O)O)CC3)c2C)c1 [Compound 14, 2-(((1s,4s)-4-((4-(3-Methoxyphenyl)-5-methyl-3-phenyl-1H-pyrazol-1-yl)methyl)cyclohexyl)methoxy)acetic Acid] as the compound, how does the “right ventricle hypertrophic response, RV/(LV+S)” value [3] read?
**A.** Its value is “inhibited the hypertrophic response”.

**Q.** COc1cccc(-c2c(-c3ccccc3)nn(C[C@H]3CC[C@@H](COCC(=O)O)CC3)c2SC)c1 [Compound 31, 2-(((1s,4s)-4-((4-(3-Methoxyphenyl)-5-(methylthio)-3-phenyl-1H-pyrazol-1-yl)methyl)cyclohexyl)methoxy)acetic Acid] was tested. Which “right ventricle hypertrophic response, RV/(LV+S)” value [3] did it give?
**A.** The value was “inhibited the hypertrophic response”.

**Q.** For CSc1c(-c2cncc(F)c2)c(-c2ccccc2)nn1C[C@H]1CC[C@@H](COCC(=O)O)CC1 [Compound 135, 2-(((1s,4s)-4-((4-(5-Fluoropyridin-3-yl)-5-(methylthio)-3-phenyl-1H-pyrazol-1-yl)methyl)cyclohexyl)methoxy)acetic Acid], which IC50 [1] is on record?
**A.** The IC50 was 220 nM.
